Earlier results in patent publication US20210353546A1, “DUAL RELEASE PHARMACEUTICAL COMPOSITIONS COMPRISING THE COMBINATION OF A BETA-3 ADRENORECEPTOR AGONIST AND A MUSCARINIC RECEPTOR ANTAGONIST” (Jubilant Pharma Holdings Inc., priority 2020, published 2021).
Read-outs that look alike come from different tables or passages of the source.

How the values were obtained:
[1] = not given; remark: listed apart in the source

half-life (in vivo): approximately 50 hours
bioavailability, food effect (presence of food in the Gastrointestinal Tract): affected by the presence of food
Solubility ([1]; in dimethyl sulfoxide): soluble
Solubility ([1]; in methanol): soluble
Solubility ([1]; in water): practically insoluble
Compound: Nc1nc(CC(=O)Nc2ccc(CCNC[C@H](O)c3ccccc3)cc2)cs1 [Mirabegron, 2-(2-aminothiazol-4-yl)-N-[4-(2-{[(2R)-2-hydroxy2-phenylethyl]amino}ethyl)phenyl] acetamide]
